# Source: US20250179166A1, “TREATMENT OF BRAIN METASTASIS” (Ramot at Tel-Aviv University Ltd., priority 2022, published 2025)
# Columns and labels:
# [1] = system: 4T1 breast cancer brain metastases; test: Orthotopic breast cancer brain metastases (BCBM) model; type: in vivo, BALB/C mice; conditions: compared to the control group
# Protocol: Breast Cancer Brain Metastases (BCBM). To generate primary breast rumors prior to BCBM, 4T1 cells (3×10^5 cells/100 μl) were inoculated orthotopically into the mammary fat pad of immunocompetent BALB/C mice. Seven days later, primary lesions were resected. One week post primary tumor resection, 4T1 cells (2×10^4 cells/2 μl) were intracranially inoculated stereotactically to the striatum of the same mice (previously bearing the primary tumors). […] Mice body weight change was monitored three times a week, and tumor growth was followed using 4.7T/1H magnetic resonance imaging (MRI, MR Solutions, UK). PBMCs activation.
# MDA-MB-231 spheroids = test: Breast cancer 3D tumor spheroids; conditions: BC cells alone or with astrocytes, microglia and PBMCs
# Protocol: Multicellular tumor spheroids (MCTS). MCTS were prepared using the hanging-drop method as previously shown (24). […] The sprouting of MCTS was analyzed using ImageJ 1.52v software, and the results were presented as total area covered or % of total area covered per spheroid (pixel density) per well.
# The plates were incubated for 7 days at 37° C. in 5% CO2 and cell fluorescence was followed and quantified by Cytation™ C10.
# [2] = system: melanoma cells (D4M.3A, B16-F10, A375, 131/4-5B1 and WM115); test: Transwell migration of melanoma cells towards bindarit-treated astrocytes; conditions: addition of rh-MCP-1; p=0.006 (astrocytes), p=0.115 (CM)
# Protocol: Transwell® Migration Assay. […] In order to assess melanoma migration in co-culture with astrocytes, human astrocytes (1×10^5 cells/well) or murine astrocytes (2×10^5 cells/well) were seeded in the lower chambers of the Transwell® inserts. […] All migrated cells were then fixed and stained (Hema 3 Stain System; Fisher Diagnostics, fixed and stained (Hema 3 Stain System; Fisher Diagnostics, USA). The stained migrated cells were imaged using EVOS FL Auto microscope (Life Technologies, USA) using 10× objective, brightfield illumination.
# WM115 melanoma cells = test: Wound healing migration assay; type: cell-based, human; conditions: vs cells in astrocytes SFM
# Protocol: (§1) Wound Healing Assay. To study the role of MCP-1 in mediating melanoma cells migration, (WM115 and 131/4-5B1 cells) (5×10^4 cells/well) were plated onto 96-well ImageLock tissue culture plate and allowed to grow until confluence. Next, a wound was created in each well using a 96-pin wound-making tool (WoundMaker, Essen BioScience, Sartorius, USA), and dislodged cells were washed with PBS. Melanoma cells were treated for 48 h with astrocytes CM, human astrocytes CM treated with siRNA:PEI polyplexes (500 nM siRNA targeting MCP-1 or scramble siRNA), astrocytes CM supplemented with 10 µg/mL anti-MCP-1 neutralizing antibody, astrocytes SFM supplemented with 1 μg/mL rh/mMCP-1. To monitor wound closure, the plate was placed in the IncuCyte™ ZOOM Live Cell Imaging system (Essen Bioscience, Sartorius, USA) and phase contrast images were taken every 2 h intervals over a course of 48 h using 10× objective. Results were calculated by the IncuCyte™ Software and presented as relative wound density (relative to the background density of the wound at time 0).
# 131/4-5B1 melanoma cells = test: Wound healing migration assay; type: cell-based, human; conditions: vs cells in astrocytes SFM
# Protocol: as §1
# MDA-MB-231 cells = test: Breast cancer Transwell migration; conditions: vs control
Molecule,systemic disease relapse (primary tumor recurrence or extracranial metastases) [1],spheroid size (MDA-MB-231 spheroids),rescue of melanoma cell migration in presence of bindarit-treated astrocytes [2],increase of melanoma cell migration (wound healing) (WM115 melanoma cells) [%],increase of melanoma cell migration (wound healing) (131/4-5B1 melanoma cells) [%],MDA-MB-231 migration towards MCP-1 recombinant protein (MDA-MB-231 cells)
"COc1ccc(C2CC(c3c(O)cc(C)oc3=O)=NCCS2)c(OC)c1 (stereo not drawn) [SELPi, 3-[7-(2,4-Dimethoxyphenyl)-2,3,6,7-tetrahydro-1,4-thiazepin-5-yl]-4-hydroxy-6-methyl-2H-pyran-2-one]",did not show any improvement in relapse,significant decrease,,,,
rh-MCP-1: Recombinant human/murine MCP-1,,,rescued the inhibition of melanoma cell migration,5,27,migrated more
